Measurements reported in patent US9750757B2, “Methods of prevention or treatment for pathologic thrombosis or inflammation” (THOMAS JEFFERSON UNIVERSITY, priority 2013, dated 2017).
“Also recorded” adds a separate entry of the source.

Columns and labels:
[1] = system: platelet rich plasma (PRP); assay: Light transmission aggregometry in platelet rich plasma, agonist-induced maximal aggregation (PRAX1); assay type: cell-based, human; conditions: for Mean percent maximal aggregation, Black: PRP of black subjects; for Mean percent maximal aggregation, White: PRP of white subjects
Experimental: (1) Houston studies. A complete blood count and mean platelet volume were obtained using an ABX Micros 60 CS (Horiba ABX, Irvine, Calif., USA). Using light transmission aggregometry, maximal percent aggregation and slope of aggregation at 10 min in platelet rich plasma (PRP) treated with: 0.5 mg/ml arachidonic acid, 4 μM ADP, 1 μM and 2 μM PAR1 activating peptide (PAR1-AP), and 50 μM and 75 μM PAR4 activating peptide (PAR4-AP) were measured. (2) Philadelphia studies. Light transmission aggregometry of washed platelets was used to assess thrombin-induced platelet aggregation without or with a 2 min pre-incubation with 20 μM BMS-200261 (BMS, PAR1-specific antagonist) (Quinton et al., J. Biol. Chem. 2004, 279, 18434-18439). A difference in the efficacy of the PAR1 inhibitor was observed between the pilot and replicate studies, but validation of inhibitor activity was confirmed for both studies (FIG. 1B inset and FIG. 7E). For assessment of calcium mobilization, platelets were re-calcified to a final concentration of 1 mM followed by pre-incubation with Fluo-4 AM for 10 min. The platelets were then stimulated with PAR4-AP and calcium mobilization was measured using the Accuri C6 flow cytometer (Yeung et al., Mol. Pharmacol. 2012, 81, 420-430). In both Houston and Philadelphia, technical variation was minimized by use of the same highly-trained technicians, same lots of reagents and same instruments throughout the duration of the study. Because multiple concentrations were used to activate PAR1 and PAR4 to induce platelet aggregation, an integrated score was developed that combined these values to determine a single index that represented each individual's agonist response. This score correlated strongly with standard assessment of maximal percent aggregation, but inclusion of slope (which was a minor contributor to the overall score, and highly related to maximal aggregation) allowed distinction among platelets with the same maximal aggregation value. This score was highly reproducible in 10 subjects studied weekly for three or four weeks.

PC-TP [2] = molecular target: T1, PC-TP (Homo sapiens, UniProt Q9UKL6); conditions: Wagel et al. 2008; cited from earlier work
T1 sequence (Q9UKL6 1-214): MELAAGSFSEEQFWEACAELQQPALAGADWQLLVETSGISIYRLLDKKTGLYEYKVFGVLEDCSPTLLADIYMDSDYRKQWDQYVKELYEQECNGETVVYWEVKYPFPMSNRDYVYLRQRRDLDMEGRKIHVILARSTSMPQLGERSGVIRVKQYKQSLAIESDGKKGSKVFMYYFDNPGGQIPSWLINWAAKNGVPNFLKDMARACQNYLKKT

PC-TP [3] = molecular target: T1, PC-TP; conditions: Shishova et al. 2011; cited from earlier work
[4] = system: platelets, PAR4-AP-induced aggregation; assay: PAR4-AP-induced aggregation of washed platelets (light transmission aggregometry); assay type: cell-based; conditions: washed human platelets incubated 30 min with inhibitor; sub-threshold concentrations of PAR4-AP
Experimental: (§1) The indicated concentrations of LDN-193,188 were incubated for 30 min with washed platelets and stimulated with sub-threshold concentrations of activating PAR peptides. […] Biol. Chem. 2004, 279, 18434-18439). […] For assessment of calcium mobilization, platelets were re-calcified to a final concentration of 1 mM followed by pre-incubation with Fluo-4 AM for 10 min. The platelets were then stimulated with PAR4-AP and calcium mobilization was measured using the Accuri C6 flow cytometer (Yeung et al., Mol. Pharmacol. 2012, 81, 420-430). In both Houston and Philadelphia, technical variation was minimized by use of the same highly-trained technicians, same lots of reagents and same instruments throughout the duration of the study. […] This score correlated strongly with standard assessment of maximal percent aggregation, but inclusion of slope (which was a minor contributor to the overall score, and highly related to maximal aggregation) allowed distinction among platelets with the same maximal aggregation value. This score was highly reproducible in 10 subjects studied weekly for three or four weeks.

[5] = system: platelets, PAR1-AP-induced aggregation; assay: PAR1-AP-induced aggregation of washed platelets (light transmission aggregometry); assay type: cell-based; conditions: washed human platelets incubated 30 min with inhibitor; sub-threshold concentrations of PAR1-AP
Experimental: as §1

Question: What does the source list for `Nc1ncnc2c1ncn2[C@@H]1O[C@H](COP(=O)(O)OP(=O)(O)O)[C@@H](O)[C@H]1O` [ADP]?
Answer: Fold difference (Black/White) ([1]; 4 μM ADP): 0.91 fold; Mean percent maximal aggregation, Black ([1]; 4 μM ADP): 40.89%; Mean percent maximal aggregation, White ([1]; 4 μM ADP): 45.04%

Question: Which “Fold difference (Black/White)” value ([1]; 500 μg/ml AA) does the source give for `CCCCC/C=C\C/C=C\C/C=C\C/C=C\CCCC(=O)O` [AA, arachidonic acid] here?
Answer: Its value is 0.99 fold.

Question: And the “Mean percent maximal aggregation, Black” value ([1]; 500 μg/ml AA)?
Answer: Its value is 86.57%.

Question: And the “Mean percent maximal aggregation, White” value ([1]; 500 μg/ml AA)?
Answer: Its value is 87.21%.

Question: What does the source list for `Cc1cc(C)nc(NS(=O)(=O)c2ccc(NC(=O)NC(=O)c3ccc(Cl)cc3Cl)cc2)n1` [LDN-193,188, 2,4-dichloro-N-(4-(N-(4,6-dimethylpyrimidin-2-yl)sulfamoyl)phenylcarbamoyl)-benzamide]?
Answer: Phosphatidylcholine transfer activity of PC-TP (PC-TP [2]): inhibitor; Displacement of phosphatidylcholine from PC-TP (PC-TP [3]): displaces phosphatidylcholine from the lipid binding pocket; Thermal stability of PC-TP (PC-TP [3]): increases the thermal stability; Effect on PAR4-AP-induced platelet aggregation [4]: prevented aggregation; also recorded: blocked; also recorded: does block; Effect on PAR1-AP-induced platelet aggregation [5]: does not block
